How the values were obtained:
[1] = target: Brd3BD1 (Homo sapiens, UniProt Q15059); experiment: ITC binary titration, Brd3BD1 into 10; type: binding; conditions: Brd3BD1 in syringe
From the text: (§1) Bromodomain and VCB complex constructs and protein preparation were described in a previous publication.[5] Wild-type version of human proteins VHL (UniProt accession number P40337), ElonginC (Q15369), ElonginB (Q15370), and the bromodomains of Brd2 (P25440), Brd3 (Q15059), and Brd4 (O60885) were used for all protein expression. In brief, the His6-tagged constructs were transformed into E. coli BL21(DE3) and induced with IPTG to produce the desired proteins. […] After cleaving the His-tag by TEV protease, a second Ni affinity column purification was performed to obtain tag-free protein in the flow-through. VCB was then additionally purified by anion exchange using MonoQ (GE Healthcare). For all proteins, purity was further polished by gel filtration chromatography.
(§2) Titrations were performed on an ITC200 microcalorimeter (GE Healthcare) as previously reported.[5] The titrations were in ITC buffer (20 mM Bis-Tris propane, 150 mM NaCl, 1 mM tris(2-carboxyethyl)phosphine (TCEP), pH 7.4), supplemented with either 0.2% or 3% DMSO and consisted of 19 injections of 2 μL of protein solution at a rate of 0.5 μL/s at 120 s time intervals. An initial injection of protein (0.4 μL) was made and discarded during data analysis. All experiments were performed at 25 °C, while stirring at 600 rpm. PROTACs were diluted from a 10 mM DMSO stock solution to 20 μM in ITC buffer with the final concentration of DMSO to be 0.2% for triazolodiazepine-based PROTAC or 3% for tetrahydroquinoline-based PROTAC. Bromodomain protein in the same buffer was titrated into the PROTAC in the cell. At the end of the titration, the excess of solution was removed from the cell, the syringe was washed and dried, and VCB complex (168 μM, in the same buffer) was loaded in the syringe and titrated into the complex of PROTAC–bromodomain. The concentration of the complex in the cell (C) after the first titration (16.8 μM) was calculated as follows: [drawing 1] where C0 is the initial concentration of the PROTAC in the cell (20 μM), Vcell is the volume of the sample cell (200.12 μL), and Vinj is the volume of titrant injected during the first titration (38.4 μL). Titrations for the binary complex PROTAC–VCB were performed in the same manner with VCB titrated into 16.8 μM PROTAC in the cell. […] The data were fitted to a single-binding-site model to obtain the stoichiometry n, the dissociation constant Kd, and the enthalpy of binding ΔH using the Microcal LLC ITC200 Origin software provided by the manufacturer.
(§3) Table S1. ITC results for the formation of binary and ternary complexes between 10, BET Bromodomain and VCB
(§4) Protein in Species in cell Kd (nM) ΔG (kcal × ΔH (kcal × -TΔS (kcal N α ΔpKd
(§5) Syringe mol-1) mol-1) × mol-1)
(§6) Titrations were performed at 25°C in duplicate except for VCB into 10, which was performed in quadruplicate.
(§7) Values reported are the mean ± s.e.m.

[2] = target: VCB / Brd3BD1 ternary complex (Homo sapiens, UniProt P40337+Q15059); experiment: ITC ternary titration, VCB into Brd3BD1:10; type: binding
From the text: as §1, §2, §3, §4, §5, §6, §7

[3] = target: Brd3BD2 (Homo sapiens, UniProt Q15059); experiment: ITC binary titration, Brd3BD2 into 10; type: binding; conditions: Brd3BD2 in syringe
From the text: as §1, §2, §3, §4, §5, §6, §7

[4] = target: VCB / Brd2BD2 ternary complex (Homo sapiens, UniProt P25440+P40337); experiment: ITC ternary titration, VCB into Brd2BD2:10; type: binding
From the text: as §1, §2, §3, §4, §5, §6, §7

[5] = test system: BET proteins Brd2, Brd3, Brd4; experiment: BET degradation profile in HeLa cells; type: cell-based
[6] = target: Brd4BD1 (Homo sapiens, UniProt O60885); experiment: ITC binary titration, Brd4BD1 into 10; type: binding; conditions: Brd4BD1 in syringe
From the text: as §1, §2, §3, §4, §5, §6, §7

[7] = target: VCB / Brd3BD2 ternary complex (Homo sapiens, UniProt P40337+Q15059); experiment: ITC ternary titration, VCB into Brd3BD2:10; type: binding
From the text: as §1, §2, §3, §4, §5, §6, §7

[8] = target: VHL-EloC-EloB protein (VCB) (Homo sapiens, UniProt P40337); experiment: ITC binary titration, VCB into PROTAC; type: binding; conditions: VCB in syringe, PROTAC in cell
[9] = target: Brd2BD1 (Homo sapiens, UniProt P25440); experiment: ITC binary titration, Brd2BD1 into 10; type: binding; conditions: Brd2BD1 in syringe
From the text: as §1, §2, §3, §4, §5, §6, §7

[10] = target: VCB / Brd4^BD2 ternary complex (Homo sapiens, UniProt O60885+P40337); experiment: ITC ternary titration, VCB into Brd4^BD2–PROTAC complex; type: binding
[11] = target: Brd2BD2 (Homo sapiens, UniProt P25440); experiment: ITC binary titration, Brd2BD2 into 10; type: binding; conditions: Brd2BD2 in syringe
From the text: as §1, §2, §3, §4, §5, §6, §7

[12] = target: VCB / Brd2BD1 ternary complex (Homo sapiens, UniProt P25440+P40337); experiment: ITC ternary titration, VCB into Brd2BD1:10; type: binding
From the text: as §1, §2, §3, §4, §5, §6, §7

[13] = target: Brd4^BD2 (Homo sapiens, UniProt O60885); experiment: ITC binary titration, Brd4^BD2 into PROTAC; type: binding; conditions: Brd4^BD2 in syringe, PROTAC in cell
[14] = target: VCB / Brd4BD1 ternary complex (Homo sapiens, UniProt O60885+P40337); experiment: ITC ternary titration, VCB into Brd4BD1:10; type: binding
From the text: as §1, §2, §3, §4, §5, §6, §7

[15] = target: T1, Brd4 (Homo sapiens, UniProt O60885); experiment: Brd4 depletion in HL60 (immunoblot); type: cell-based
T1 construct: endogenous in cells; host or cells: MV4;11; HL60

Chain of Brd2BD1 (P25440 74-180 limits assumed): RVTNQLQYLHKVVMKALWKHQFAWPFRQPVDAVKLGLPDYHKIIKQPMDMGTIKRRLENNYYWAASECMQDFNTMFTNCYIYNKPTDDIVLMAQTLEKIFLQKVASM
Chain of Brd2BD2 (P25440 344-453 limits assumed): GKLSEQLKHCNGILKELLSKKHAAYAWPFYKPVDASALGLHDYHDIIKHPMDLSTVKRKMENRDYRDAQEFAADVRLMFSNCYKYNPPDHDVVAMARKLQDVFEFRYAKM
Chain of Brd3BD1 (Q15059 34-140 limits assumed): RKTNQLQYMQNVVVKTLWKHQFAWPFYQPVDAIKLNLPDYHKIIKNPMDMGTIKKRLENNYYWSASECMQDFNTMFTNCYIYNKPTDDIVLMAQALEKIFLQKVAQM
Chain of Brd3BD2 (Q15059 306-415 limits assumed): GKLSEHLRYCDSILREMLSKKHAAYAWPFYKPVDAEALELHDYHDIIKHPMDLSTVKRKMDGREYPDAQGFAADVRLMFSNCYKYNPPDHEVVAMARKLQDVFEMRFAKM

CC(=O)N1c2ccc(-c3ccc(C(=O)NCCOCCOCCOCCOCC(=O)N[C@H](C(=O)N4C[C@H](O)C[C@H]4C(=O)NCc4ccc(-c5scnc5C)cc4)C(C)(C)C)cc3)cc2[C@H](Nc2ccc(Cl)cc2)C[C@@H]1C [compound 10, (2S,4R)-1-((S)-1-(4-((2S,4R)-1-Acetyl-4-((4-chlorophenyl)amino)-2-methyl-1,2,3,4-tetrahydroquinolin-6-yl)phenyl)-18-(tert-butyl)-1,16-dioxo-5,8,11,14-tetraoxa-2,17-diazanonadecan-19-oyl)-4-hydroxy-N-(4-(4-methylthiazol-5-yl)benzyl)pyrrolidine-2-carboxamide]
-TΔS [1]: 3.2 ± 0.2 kcal/mol
N [1]: 0.98 ±0.04
ΔG [1]: -10.1 ± 0.1 kcal/mol
ΔH [1]: -13.3 ± 0.4 kcal/mol
Kd ([1]; 10 in cell, 25°C): 39 ± 8 nM
α ([2]; cooperativity, Brd3BD1): 0.7
ΔpKd ([2]; ternary vs binary, Brd3BD1): 0.14 ±0.09
Kd ([2]; ternary, VCB in syringe, Brd3BD1:10 in cell, 25°C): 152 ± 30 nM
-TΔS ([2]; ternary, VCB into Brd3BD1:10): -5.18 ± 0.14 kcal/mol
N ([2]; ternary, VCB into Brd3BD1:10): 1.03 ±0.18
ΔG ([2]; ternary, VCB into Brd3BD1:10): -9.31 ± 0.12 kcal/mol
ΔH ([2]; ternary, VCB into Brd3BD1:10): -4.13 ± 0.02 kcal/mol
-TΔS [3]: 3.0 ± 0.1 kcal/mol
N [3]: 1.02 ±0.09
ΔG [3]: -10.9 ± 0.3 kcal/mol
ΔH [3]: -13.9 ± 0.4 kcal/mol
Kd ([3]; 10 in cell, 25°C): 11 ± 5 nM
α ([4]; cooperativity, Brd2BD2): 0.3
ΔpKd ([4]; ternary vs binary, Brd2BD2): 0.52 ±0.17
Kd ([4]; ternary, VCB in syringe, Brd2BD2:10 in cell, 25°C): 384 ± 145 nM
-TΔS ([4]; ternary, VCB into Brd2BD2:10): -1.02 ± 0.61 kcal/mol
N ([4]; ternary, VCB into Brd2BD2:10): 0.73 ±0.02
ΔG ([4]; ternary, VCB into Brd2BD2:10): -8.80 ± 0.23 kcal/mol
ΔH ([4]; ternary, VCB into Brd2BD2:10): -7.77 ± 0.37 kcal/mol
window of concentration for selective degradation of BRD3/4 [5]: 30 to 100 nM
concentration with increased levels of BET proteins (hook effect) ([5]; 24 h): 1 to 10 µM
intra-BET degradation selectivity ([5]; 24 h): depletion selectivity for Brd4 and Brd3 over Brd2
-TΔS [6]: 1.6 ± 0.7 kcal/mol
N [6]: 0.73 ±0.02
ΔG [6]: -10.3 ± 0.4 kcal/mol
ΔH [6]: -11.9 ± 0.3 kcal/mol
Kd ([6]; 10 in cell, 25°C): 39 ± 24 nM
α ([7]; cooperativity, Brd3BD2): 0.3
ΔpKd ([7]; ternary vs binary, Brd3BD2): 0.58 ±0.14
Kd ([7]; ternary, VCB in syringe, Brd3BD2:10 in cell, 25°C): 434 ± 128 nM
-TΔS ([7]; ternary, VCB into Brd3BD2:10): -1.37 ± 0.54 kcal/mol
N ([7]; ternary, VCB into Brd3BD2:10): 1.03 ±0.15
ΔG ([7]; ternary, VCB into Brd3BD2:10): -8.71 ± 0.18 kcal/mol
ΔH ([7]; ternary, VCB into Brd3BD2:10): -7.33 ± 0.36 kcal/mol
stoichiometry N [8]: 0.92 ± 0.15
-TΔS [9]: 1.86 ± 0.02 kcal/mol
N [9]: 1.00 ±0.08
ΔG [9]: -10.0 ± 0.2 kcal/mol
ΔH [9]: -11.9 ± 0.2 kcal/mol
Kd ([9]; 10 in cell, 25°C): 45 ± 13 nM
α ([10]; cooperativity, ratio between binary and ternary Kd, Brd4^BD2): 0.6
cooperativity (α) Brd4–BD2 ([10]; ternary complex formation with VCB and Brd4^BD2, as tabulated in Table 2): 0.59
ΔpKd ± uncertainty ([10]; ternary vs binary, Brd4^BD2): –0.22 ± 0.08
stoichiometry N ([10]; ternary, VCB in syringe, Brd4^BD2–PROTAC in cell): 0.87 ± 0.02
-TΔS [11]: -1.19 ± 0.07 kcal/mol
N [11]: 0.84 ±0.05
ΔG [11]: -11.3 ± 0.01 kcal/mol
ΔH [11]: -10.1 ± 0.1 kcal/mol
Kd ([11]; 10 in cell, 25°C): 5 ± 0.1 nM
α ([12]; cooperativity, Brd2BD1): 0.3
ΔpKd ([12]; ternary vs binary, Brd2BD1): 0.41 ±0.23
-TΔS ([12]; ternary, VCB into Brd2BD1:10): -4.19 ± 0.92 kcal/mol
N ([12]; ternary, VCB into Brd2BD1:10): 0.99 ±0.08
ΔG ([12]; ternary, VCB into Brd2BD1:10): -8.95 ± 0.31 kcal/mol
ΔH ([12]; ternary, VCB into Brd2BD1:10): -4.76 ± 0.62 kcal/mol
stoichiometry N [13]: 0.86 ± 0.06
α ([14]; cooperativity, Brd4BD1): 0.5
ΔpKd ([14]; ternary vs binary, Brd4BD1): 0.29 ±0.14
Kd ([14]; ternary, VCB in syringe, Brd4BD1:10 in cell, 25°C): 221 ± 65 nM
-TΔS ([14]; ternary, VCB into Brd4BD1:10): -6.63 ± 0.09 kcal/mol
N ([14]; ternary, VCB into Brd4BD1:10): 0.70 ±0.07
ΔG ([14]; ternary, VCB into Brd4BD1:10): -9.11 ± 0.18 kcal/mol
ΔH ([14]; ternary, VCB into Brd4BD1:10): -2.47 ± 0.09 kcal/mol

Cc1sc2c(c1C)C(c1ccc(Cl)cc1)=N[C@@H](CC(=O)OC(C)(C)C)c1nnc(C)n1-2 [compound 3]
Brd4 depletion (%) HL60 [15]: –243/20%
